From US11026991B2, “Compositions and methods of use thereof to promote muscle growth and function” (Worlds Greatest Ingredients, LP, priority 2018, dated 2021)
Where two headings read alike, the source gives them in different places.

Settings: in vivo; for Plasma Isoleucine Concentrations After Ingestion / Plasma Leucine Concentrations After Ingestion / Plasma Lysine Concentrations After Ingestion / Plasma Methionine Concentrations After Ingestion / Plasma Phenylalanine Concentrations After Ingestion / Plasma Threonine Concentrations After Ingestion / Plasma Tryptophan Concentrations After Ingestion / Plasma Valine Concentrations After Ingestion / Total Plasma BCAA Concentrations After Ingestion / Total Plasma EAA Concentrations After Ingestion / Plasma Leucine Delta Change Relative to Baseline Values / Plasma Leucine Percent Change Relative to Baseline Values / relative increase in plasma leucine from Pre / elevation in plasma leucine relative to baseline, times greater than the other condition: male, human
Description: The subject came into the laboratory fasted prior to the testing days. […] On Day 1, they were randomized to consume 1 of the 2 conditions. Following, consumption of the fluid mixture (8 oz. water), plasma amino acids were measured at 30, 60, 90, and 120 minutes. A 72-hour washout took place followed by the 2nd condition following the same procedures.
The dosage used in this study was either 2 grams of di-leucine (condition Ce) or 2 grams of leucine (condition C4).

SMILES: CC(C)C[C@H](N)C(=O)O [Condition C4, leucine]
- increase in plasma lysine, times greater than the other condition: 19 ×
- increases in total EAA concentration relative to baseline (range): 9.4% to 16.3%
- plasma phenylalanine change relative to Pre values (range): −16.0% to −3.5%
- Plasma Isoleucine Concentrations After Ingestion: 45.75 nmol/L
- Plasma Leucine Concentrations After Ingestion: 92.25 nmol/L
- Plasma Lysine Concentrations After Ingestion: 121.19 nmol/L
- Plasma Methionine Concentrations After Ingestion: 18.77 nmol/L
- Plasma Phenylalanine Concentrations After Ingestion: 48.61 nmol/L
- Plasma Threonine Concentrations After Ingestion: 87.38 nmol/L
- Plasma Tryptophan Concentrations After Ingestion: 45.00 nmol/L
- Plasma Valine Concentrations After Ingestion: 230.43 nmol/L
- Total Plasma BCAA Concentrations After Ingestion: 368.43 nmol/L
- Total Plasma EAA Concentrations After Ingestion: 689.38 nmol/L
- Plasma Isoleucine Concentrations After Ingestion (30 min): 34.44 nmol/L
- Plasma Leucine Concentrations After Ingestion (30 min): 198.33 nmol/L
- Plasma Leucine Delta Change Relative to Baseline Values (30 min): 106.09 nmol/L
- Plasma Leucine Percent Change Relative to Baseline Values (30 min): 115.0%
- Plasma Lysine Concentrations After Ingestion (30 min): 135.48 nmol/L
- Plasma Methionine Concentrations After Ingestion (30 min): 16.61 nmol/L
- Plasma Phenylalanine Concentrations After Ingestion (30 min): 42.44 nmol/L
- Plasma Threonine Concentrations After Ingestion (30 min): 76.42 nmol/L
- Plasma Tryptophan Concentrations After Ingestion (30 min): 40.12 nmol/L
- Plasma Valine Concentrations After Ingestion (30 min): 210.39 nmol/L
- Total Plasma BCAA Concentrations After Ingestion (30 min): 443.16 nmol/L
- Total Plasma EAA Concentrations After Ingestion (30 min): 754.23 nmol/L
- relative increase in plasma leucine from Pre (30 min): 106.09 nmol/mL
- Plasma Isoleucine Concentrations After Ingestion (60 min): 33.30 nmol/L
- Plasma Leucine Concentrations After Ingestion (60 min): 146.70 nmol/L
- Plasma Leucine Delta Change Relative to Baseline Values (60 min): 54.45 nmol/L
- Plasma Leucine Percent Change Relative to Baseline Values (60 min): 59.0%
- Plasma Lysine Concentrations After Ingestion (60 min): 128.45 nmol/L
- Plasma Methionine Concentrations After Ingestion (60 min): 15.94 nmol/L
- Plasma Phenylalanine Concentrations After Ingestion (60 min): 40.84 nmol/L
- Plasma Threonine Concentrations After Ingestion (60 min): 75.83 nmol/L
- Plasma Tryptophan Concentrations After Ingestion (60 min): 43.54 nmol/L
- Plasma Valine Concentrations After Ingestion (60 min): 200.61 nmol/L
- Total Plasma BCAA Concentrations After Ingestion (60 min): 380.61 nmol/L
- Total Plasma EAA Concentrations After Ingestion (60 min): 685.20 nmol/L
- relative increase in plasma leucine from Pre (60 min): 54.45 nmol/mL
- Plasma Isoleucine Concentrations After Ingestion (90 min): 40.37 nmol/L
- Plasma Leucine Concentrations After Ingestion (90 min): 181.67 nmol/L
- Plasma Leucine Delta Change Relative to Baseline Values (90 min): 89.42 nmol/L
- Plasma Leucine Percent Change Relative to Baseline Values (90 min): 96.9%
- Plasma Lysine Concentrations After Ingestion (90 min): 134.15 nmol/L
- Plasma Methionine Concentrations After Ingestion (90 min): 19.30 nmol/L
- Plasma Phenylalanine Concentrations After Ingestion (90 min): 46.94 nmol/L
- Plasma Threonine Concentrations After Ingestion (90 min): 91.05 nmol/L
- Plasma Tryptophan Concentrations After Ingestion (90 min): 46.58 nmol/L
- Plasma Valine Concentrations After Ingestion (90 min): 225.20 nmol/L
- Total Plasma BCAA Concentrations After Ingestion (90 min): 447.24 nmol/L
- Total Plasma EAA Concentrations After Ingestion (90 min): 785.26 nmol/L
- elevation in plasma leucine relative to baseline, times greater than the other condition (90 min): 2.6 ×
- Plasma Isoleucine Concentrations After Ingestion (120 min): 36.47 nmol/L
- Plasma Leucine Concentrations After Ingestion (120 min): 158.84 nmol/L
- Plasma Leucine Delta Change Relative to Baseline Values (120 min): 66.59 nmol/L
- Plasma Leucine Percent Change Relative to Baseline Values (120 min): 72.2%
- Plasma Lysine Concentrations After Ingestion (120 min): 171.18 nmol/L
- Plasma Methionine Concentrations After Ingestion (120 min): 19.19 nmol/L
- Plasma Phenylalanine Concentrations After Ingestion (120 min): 45.40 nmol/L
- Plasma Threonine Concentrations After Ingestion (120 min): 90.94 nmol/L
- Plasma Tryptophan Concentrations After Ingestion (120 min): 44.81 nmol/L
- Plasma Valine Concentrations After Ingestion (120 min): 234.78 nmol/L
- Total Plasma BCAA Concentrations After Ingestion (120 min): 430.08 nmol/L
- Total Plasma EAA Concentrations After Ingestion (120 min): 801.61 nmol/L
- elevation in plasma leucine relative to baseline, times greater than the other condition (120 min): 1.5 ×
